Source: publication doi:10.1101/2020.04.05.026310v1 (biorxiv, 2020)
One block for each molecule: values may come before it.

Key:
[1] = biological target: T1, mPDXK (mouse pyridoxal kinase) (Mus musculus, UniProt Q8K183); assay: photometric PLP formation at […] nm, nonlinear variable-slope fit; type: biochemical
T1 sequence (Q8K183 1-312): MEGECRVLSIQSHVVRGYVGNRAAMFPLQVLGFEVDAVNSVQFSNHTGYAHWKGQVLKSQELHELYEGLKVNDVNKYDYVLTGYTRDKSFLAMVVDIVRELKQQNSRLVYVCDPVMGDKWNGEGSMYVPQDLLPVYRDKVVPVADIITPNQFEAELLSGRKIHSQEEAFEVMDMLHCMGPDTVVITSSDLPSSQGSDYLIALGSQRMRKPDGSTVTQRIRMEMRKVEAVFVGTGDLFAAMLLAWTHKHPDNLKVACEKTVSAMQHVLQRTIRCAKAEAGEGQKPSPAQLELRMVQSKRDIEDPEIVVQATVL

[2] = biological target: T1, mPDXK (mouse pyridoxal kinase); assay: photometric PLP formation at […] nm, Dixon plot; type: biochemical
purified protein = substrate: Cc1ncc(CO)c(C=O)c1O; assay: purified protein; type: biochemical, Mus musculus; conditions: 1 mM ATP, 1 mM MgCl2, 100 mM KCl, 10 mM Hepes pH 7.3, 37 °C

Molecule: C[C@@H]1CC[C@H]2[C@@H](C)C(=O)O[C@@H]3O[C@@]4(C)CC[C@@H]1[C@]32OO4 [artemisinin]
- IC50 [1]: 229 ± 1.3 µM
- Ki [2]: 120 ± 2.4 µM

- IC50 [1]: 1445 ± 1.4 µM
- Ki [2]: 1250 ± 4.7 µM
Molecule: C[C@H]1[C@H](OC(=O)CCC(=O)O)O[C@@H]2O[C@@]3(C)CC[C@H]4[C@H](C)CC[C@@H]1[C@@]24OO3 [artesunate]

B1: mPDXK (mouse pyridoxal kinase) (Mus musculus) (protein)
chain: T1 sequence (Q8K183 1-312)
- Km (purified protein): 26.0 ± 5.4 µM
- kcat (purified protein): 0.1436 ± 0.003 s⁻¹
